What was measured:
HEK 293 cells = assay: Monolayer cytotoxicity (MTT assay), HEK 293 cells; type: cell-based; conditions: 72 h incubation
Text: Cell Lines and Cell Culture Conditions. The human mammary epithelial HMLER and HMLER-shEcad cell lines were kindly donated by Prof. R. A. Weinberg (Whitehead Institute, MIT). The human epithelial breast MCF10A, breast adenocarcinoma MDA-MB-231 and MDA-MB-468, murine epithelial breast 4T1, and embryonic kidney HEK 293 cell lines were acquired from American Type Culture Collection (ATCC, Manassas, VA, USA).
HMLER, HMLER-shEcad, and MCF10A cells were maintained in Mammary Epithelial Cell Growth Medium (MEGM) with supplements and growth factors (BPE, hydrocortisone, hEGF, insulin, and gentamicin/amphotericin-B). MDA-MB-231, MDA-MB-468, 4T1, and HEK 293 cells were maintained in Dulbecco's Modified Eagle's Medium (DMEM) supplemented with fetal bovine serum (10 %) and penicillin/streptomycin (1 %). The cells were grown at 310 K in a humidified atmosphere containing 5% CO2.
Monolayer Cytotoxicity Studies. Exponentially growing cells were seeded at a density of approximately 5 × 10^3 cells per well in 96-well flat-bottomed microplates and allowed to attach for 24 h prior to addition of compounds. […]
media. […] The optical density was measured at 550 nm using a 96-well multiscanner autoreader. Absorbance values were normalised to (DMSO-containing) control wells and plotted as concentration of test compound versus % cell viability. […]

HMLER-shEcad cells = assay: Intracellular ROS assay (DCFH-DA, flow cytometry); type: cell-based, human; conditions: 0.4 μM
Protocol: media. The final concentration of DMSO in each well was ≤1 %. After 72 h, 20 μl of MTT (4 mg mL-1 in PBS) was added to each well and the plates incubated for an additional 4 h at 37 °C. The media/MTT mixture was eliminated and DMSO (100 μl per well) was added to dissolve the formazan precipitates. The optical density was measured at 550 nm using a 96-well multiscanner autoreader. Absorbance values were normalised to (DMSO-containing) control wells and plotted as concentration of test compound versus % cell viability. IC50 values were interpolated from the resulting dose dependent curves. The reported IC50 values are the average of three independent experiments (n = 18).
Tumorsphere Formation and Viability Assay. […] Mammospheres treated with 1-3, 5-fluorouracil, capecitabine, cisplatin, carboplatin, and salinomycin (at their respective IC20 values, 5 days) were counted and imaged using an inverted microscope. The viability of the mammospheres was determined by addition of a resazurin-based reagent, TOX8 (Sigma). After incubation for 16 h, the fluorescence of the solutions was read at 590 nm (λex = 560 nm). […] Fluorescence values were normalised to DMSO-containing controls and plotted as concentration of test compound versus % mammospheres viability. […]
Cellular Uptake. […] The number of cells was counted at this stage, using a haemocytometer. […] Gold levels are expressed as mass of Au (ng) per million cells. […]

## COc1ccc2c(c1)c(CC(=O)[O][Au][PH](c1ccccc1)(c1ccccc1)c1ccccc1)c(C)n2C(=O)c1ccc(Cl)cc1 [complex 1]
HEK 293 cells
  IC50: 1920 ± 230 nM
HMLER-shEcad cells; 6 h exposure (peak)
  increase in intracellular ROS levels: 104%
HMLER-shEcad cells; prolonged (16–24 h) exposure
  increase in intracellular ROS levels: statistically insignificant increases in ROS levels
